Source: patent US9067935B2 (Janssen Pharmaceutica, NV, priority 2010, dated 2015)
Several values for one entry are separate records, joined by “and”; a condition that tells them apart may be missing. Identical values can stand only once. Like-named read-outs stand apart in the source and are kept apart here.

Biological target: canine TRPM8 (Canis lupus familiaris, UniProt Q1A7N1)
Experiment: In Vitro Canine TRPM8 Functional Assay (intracellular Ca2+ fluorescence, icilin challenge)
Type: cell-based
Details: for IC50: icilin at ~80% maximal response
Method: The functional activity of compounds of the formula (I) was determined by measuring changes in intracellular calcium concentration using a Ca^2+-sensitive fluorescent dye. The changes in fluorescent signal were monitored by a fluorescence plate reader, either a FLIPR™ (Molecular Devices) or FDSS (Hamamatsu).
At 24 hrs prior to assay, HEK293 cells stably expressing canine TRPM8 were seeded in culture medium in black wall, clear-base poly-D-lysine coated 384-well plates (BD Biosciences, NJ, USA) and grown overnight in 5% CO2 at 37° C. On assay day, growth media was removed and cells were loaded with Calcium 3 Dye (Molecular Devices) for 35 min at 37° C., under 5% CO2 and then for 25 min at room temperature and atmosphere. Subsequently, cells were tested for agonist-induced increases in intracellular Ca^2+ levels using FLIPR™ or FDSS. Cells were challenged with a compound of the Formula (I) (at varying concentrations) and intracellular Ca^2+ was measured for 5 min prior to the addition of icilin to all wells to achieve a final concentration that produces approximately an 80% maximal response. EC50 or IC50 values for compounds of the present invention were determined from eight-point dose-response studies. Curves were generated using the average of quadruplicate wells for each data point.

[1] = HEK293 cells stably expressing canine TRPM8
[2] = HEK293, @ 0.2 μM, HEK293 cells stably expressing canine TRPM8, read-out: % Inh (%) @ 0.2 μM

Chain of canine TRPM8 (Q1A7N1 1-1104): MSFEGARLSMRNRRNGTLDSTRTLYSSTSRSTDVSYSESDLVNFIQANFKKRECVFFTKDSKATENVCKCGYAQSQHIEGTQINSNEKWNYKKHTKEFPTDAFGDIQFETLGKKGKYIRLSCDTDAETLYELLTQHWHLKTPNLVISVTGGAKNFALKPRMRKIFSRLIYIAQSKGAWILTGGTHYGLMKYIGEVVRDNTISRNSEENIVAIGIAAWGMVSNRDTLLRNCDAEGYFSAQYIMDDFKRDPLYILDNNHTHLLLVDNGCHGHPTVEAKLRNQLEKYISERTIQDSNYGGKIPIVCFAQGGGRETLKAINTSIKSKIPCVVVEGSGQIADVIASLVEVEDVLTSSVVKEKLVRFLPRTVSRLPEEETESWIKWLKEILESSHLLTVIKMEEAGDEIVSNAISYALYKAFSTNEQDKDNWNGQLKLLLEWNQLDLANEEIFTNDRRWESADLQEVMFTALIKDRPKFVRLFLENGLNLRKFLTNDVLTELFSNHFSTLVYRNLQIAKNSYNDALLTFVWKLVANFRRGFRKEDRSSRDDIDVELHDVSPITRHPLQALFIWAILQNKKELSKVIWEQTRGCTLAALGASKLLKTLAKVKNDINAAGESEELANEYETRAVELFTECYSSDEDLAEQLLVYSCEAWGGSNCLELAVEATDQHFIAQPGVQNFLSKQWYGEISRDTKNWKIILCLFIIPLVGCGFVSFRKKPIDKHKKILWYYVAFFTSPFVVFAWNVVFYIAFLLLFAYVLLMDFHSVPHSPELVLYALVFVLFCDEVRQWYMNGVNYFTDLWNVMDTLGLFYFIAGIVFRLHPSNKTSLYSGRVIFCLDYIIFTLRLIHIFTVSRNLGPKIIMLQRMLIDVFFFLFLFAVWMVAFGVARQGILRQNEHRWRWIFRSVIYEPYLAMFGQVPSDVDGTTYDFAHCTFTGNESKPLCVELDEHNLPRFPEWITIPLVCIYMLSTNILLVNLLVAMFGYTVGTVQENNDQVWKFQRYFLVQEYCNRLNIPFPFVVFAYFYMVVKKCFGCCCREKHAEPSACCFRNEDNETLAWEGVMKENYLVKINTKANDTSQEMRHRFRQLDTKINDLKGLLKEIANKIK

IC50 [1] | inhibition at 0.2 µM [2] [%] | Compound | inhibition at 0.2 µM (HEK293, read-out: % Inh (%) @ 0.2 μM) [%]
3.25 nM |  | O=S(=O)(c1ccccc1)N(Cc1ccc(F)c(C(F)(F)F)c1)c1nc2ccccn2c1Cl [Compound 1] | 
1.8 nM |  | O=S(=O)(c1ccccc1)N(Cc1ccc(OC(F)(F)F)cc1)c1nc2ccccn2c1Cl [Compound 3] | 
16.7 nM |  | CS(=O)(=O)N(Cc1ccc(OC(F)(F)F)cc1)c1nc2ccccn2c1Br [Compound 4] | 
5.3 nM |  | O=S(=O)(c1ccccc1)N(Cc1ccc(OC(F)(F)F)cc1)c1nc2ccccn2c1Br [Compound 5] | 
 |  | O=C(O)c1ccc(S(=O)(=O)N(Cc2ccc(OC(F)(F)F)cc2)c2nc3ccccn3c2Cl)cc1 [Compound 6] | 102
29.8 nM |  | O=S(=O)(c1ccccc1)N(Cc1ccc(OC(F)(F)F)cc1)c1nc2ccc(Cl)cn2c1Cl [Compound 7] | 
13.6 nM |  | O=S(=O)(c1ccc(F)cc1)N(Cc1ccc(OC(F)(F)F)cc1)c1nc2ccccn2c1Cl [Compound 9] | 
17.4 nM |  | O=S(=O)(c1ccc(F)cc1)N(Cc1ccc(F)c(C(F)(F)F)c1)c1nc2ccccn2c1Cl [Compound 10] | 
5.68 nM |  | Cc1c(N(Cc2ccc(OC(F)(F)F)cc2)S(=O)(=O)c2ccccc2)nc2ccccn12 [Compound 11] | 
48.7 nM |  | O=S(=O)(c1ccccc1)N(Cc1ccc(OC(F)(F)F)cc1)c1cn2ccccc2n1 [Compound 12] | 
48.9 nM |  | O=S(=O)(c1ccccc1)N(Cc1ccc(F)c(C(F)(F)F)c1)c1cn2ccccc2n1 [Compound 13] | 
20.7 nM |  | Cc1c(N(Cc2ccc(OC(F)(F)F)cc2)S(=O)(=O)c2ccccc2)nc2cc(Cl)ccn12 [Compound 14] | 
16 nM |  | Cc1c(N(Cc2ccc(F)c(C(F)(F)F)c2)S(=O)(=O)c2ccccc2)nc2cc(Cl)ccn12 [Compound 15] | 
72 nM |  | O=S(=O)(c1ccccc1)N(Cc1ccc(F)cc1)c1nc2ccc(Cl)cn2c1Cl [Compound 16] | 
78.6 nM |  | O=S(=O)(c1ccccc1)N(Cc1ccc(F)c(F)c1)c1nc2ccc(Cl)cn2c1Cl [Compound 18] | 
14.4 nM |  | Cc1c(N(Cc2ccc(OC(F)(F)F)cc2)S(=O)(=O)c2ccccc2)nc2ccc(F)cn12 [Compound 19] | 
10.1 nM |  | Cc1c(N(Cc2ccc(F)c(C(F)(F)F)c2)S(=O)(=O)c2ccccc2)nc2ccc(F)cn12 [Compound 20] | 
10.6 nM and 12.4 nM |  | Cc1c(N(Cc2ccc(C(F)(F)F)c(F)c2)S(=O)(=O)c2ccccc2)nc2ccc(F)cn12 [Compound 21] | 
 | 51 | Cc1c(N(Cc2ccc(OC(F)(F)F)cc2)S(C)(=O)=O)nc2ccc(F)cn12 [Compound 22] | 
 | 58 | Cc1c(N(Cc2ccc(F)c(C(F)(F)F)c2)S(C)(=O)=O)nc2ccc(F)cn12 [Compound 23] | 
13.4 nM |  | O=S(=O)(c1ccccc1)N(Cc1ccc(C(F)(F)F)c(F)c1)c1cn2ccccc2n1 [Compound 24] | 
3.49 nM |  | O=S(=O)(c1ccccc1)N(Cc1ccc(C(F)(F)F)c(F)c1)c1nc2ccccn2c1Br [Compound 25] | 
10.1 nM | 100 | Cc1ccn2c(C)c(N(Cc3ccc(OC(F)(F)F)cc3)S(=O)(=O)c3ccccc3)nc2c1 [Compound 26] | 
6.11 nM | 100 | Cc1ccn2c(C)c(N(Cc3ccc(C(F)(F)F)c(F)c3)S(=O)(=O)c3ccccc3)nc2c1 [Compound 27] | 
8.01 nM | 100 | Cc1ccn2c(C)c(N(Cc3ccc(F)c(C(F)(F)F)c3)S(=O)(=O)c3ccccc3)nc2c1 [Compound 28] | 

IC50 [1] | inhibition at 0.2 µM [2] [%] | Compound | inhibition at 0.2 µM (HEK293, read-out: % Inh (%) @ 0.2 μM) [%]
32.2 nM | 90 | O=S(=O)(c1ccccc1)N(Cc1ccc(C(F)(F)F)c(F)c1)c1nc2ccc(Cl)cn2c1Cl [Compound 29] | 
10 nM | 100 | Cc1cccn2c(C)c(N(Cc3ccc(OC(F)(F)F)cc3)S(=O)(=O)c3ccccc3)nc12 [Compound 30] | 
10.3 nM | 101 | Cc1cccn2c(C)c(N(Cc3ccc(F)c(C(F)(F)F)c3)S(=O)(=O)c3ccccc3)nc12 [Compound 31] | 
12.5 nM | 100 | Cc1cccn2c(C)c(N(Cc3ccc(C(F)(F)F)c(F)c3)S(=O)(=O)c3ccccc3)nc12 [Compound 32] | 
26.7 nM | 99 | Cc1cccn2c(C)c(N(Cc3ccc(C(F)(F)F)cc3)S(=O)(=O)c3ccccc3)nc12 [Compound 33] | 
9.83 nM | 100 | Cc1cccn2c(C)c(N(Cc3cccc(C(F)(F)F)c3)S(=O)(=O)c3ccccc3)nc12 [Compound 34] | 
44.9 nM | 74 | Cc1cccn2c(C)c(N(Cc3ccc(F)c(C(F)(F)F)c3)S(C)(=O)=O)nc12 [Compound 35] | 
22.5 nM | 100 | Cc1c(N(Cc2ccc(OC(F)(F)F)cc2)S(=O)(=O)c2ccccc2)nc2ccc(Cl)cn12 [Compound 36] | 
29.4 nM | 100 | Cc1c(N(Cc2ccc(F)c(C(F)(F)F)c2)S(=O)(=O)c2ccccc2)nc2ccc(Cl)cn12 [Compound 37] | 
28.9 nM | 99 | Cc1ccc2nc(N(Cc3ccc(OC(F)(F)F)cc3)S(=O)(=O)c3ccccc3)c(C)n2c1 [Compound 39] | 
22.2 nM | 100 | Cc1ccc2nc(N(Cc3ccc(F)c(C(F)(F)F)c3)S(=O)(=O)c3ccccc3)c(C)n2c1 [Compound 40] | 
25.3 nM | 100 | Cc1ccc2nc(N(Cc3ccc(C(F)(F)F)c(F)c3)S(=O)(=O)c3ccccc3)c(C)n2c1 [Compound 41] | 
25.4 nM | 99 | Cc1ccn2c(C)c(N(Cc3ccc(F)c(C(F)(F)F)c3)S(=O)(=O)c3ccc(Br)cc3)nc2c1 [Compound 42] | 
24.3 nM | 99 | Cc1c(N(Cc2ccc(C(F)(F)F)cc2)S(=O)(=O)c2ccccc2)nc2ccc(Cl)cn12 [Compound 43] | 
18.3 nM | 100 | Cc1c(N(Cc2cccc(C(F)(F)F)c2)S(=O)(=O)c2ccccc2)nc2ccc(Cl)cn12 [Compound 44] | 
39 nM | 99 | Cc1c(N(Cc2cccc(OC(F)(F)F)c2)S(=O)(=O)c2ccccc2)nc2ccc(Cl)cn12 [Compound 45] | 
13.6 nM | 99 | Cc1c(N(Cc2ccc(F)c(Cl)c2)S(=O)(=O)c2ccccc2)nc2ccc(Cl)cn12 [Compound 46] | 
11 nM | 99 | Cc1cccc2nc(N(Cc3ccc(F)c(C(F)(F)F)c3)S(=O)(=O)c3ccccc3)c(C)n12 [Compound 48] | 
13.3 nM | 99 | Cc1cccc2nc(N(Cc3ccc(C(F)(F)F)c(F)c3)S(=O)(=O)c3ccccc3)c(C)n12 [Compound 49] | 
12.3 nM | 101 | CC(C)c1c(N(Cc2ccc(F)c(C(F)(F)F)c2)S(=O)(=O)c2ccccc2)nc2ccccn12 [Compound 50] | 
6.56 nM | 101 | CC(C)c1c(N(Cc2ccc(C(F)(F)F)c(F)c2)S(=O)(=O)c2ccccc2)nc2ccccn12 [Compound 51] | 
9.43 nM | 101 | CC(C)c1c(N(Cc2ccc(OC(F)(F)F)cc2)S(=O)(=O)c2ccccc2)nc2ccccn12 [Compound 52] | 
3.19 nM | 101 | CC(C)c1c(N(Cc2ccc(C(F)(F)F)cc2)S(=O)(=O)c2ccccc2)nc2ccccn12 [Compound 53] | 
7.92 nM | 101 | CC(C)c1c(N(Cc2cccc(C(F)(F)F)c2)S(=O)(=O)c2ccccc2)nc2ccccn12 [Compound 54] | 
